Each compound was assayed against T1, human P2X3 receptor (Homo sapiens, UniProt P56373) (assay: Calcium luminescence (photoprotein) assay in CHO-K1 cells co-expressing human P2X3 receptor, α,β-Met-ATP stimulation, FLEXSTATION readout). Conditions: Table 7; human P2X3 receptor antagonist activity, CHO-K1 cells, α,β-Met-ATP; read-out: h-P2X3 IC50.
T1 construct: expressed in transfected cells; host or cells: CHO-K1
T1 sequence (P56373 1-397): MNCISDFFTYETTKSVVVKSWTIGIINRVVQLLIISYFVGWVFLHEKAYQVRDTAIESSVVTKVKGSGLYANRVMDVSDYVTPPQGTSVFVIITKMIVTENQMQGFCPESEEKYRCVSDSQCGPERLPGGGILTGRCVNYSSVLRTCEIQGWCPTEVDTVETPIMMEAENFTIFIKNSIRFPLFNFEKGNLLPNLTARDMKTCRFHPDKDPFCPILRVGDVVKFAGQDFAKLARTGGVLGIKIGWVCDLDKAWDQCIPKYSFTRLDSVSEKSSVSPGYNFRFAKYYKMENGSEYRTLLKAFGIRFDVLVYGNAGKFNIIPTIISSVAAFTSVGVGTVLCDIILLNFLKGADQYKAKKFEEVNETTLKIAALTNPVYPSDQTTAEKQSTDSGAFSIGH
Format: cell-based
Summary of the method: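 CHO-K1 cells co-expressing human P2X3 and a Ca2+-sensitive photoprotein, loaded with coelenterazine in Tyrode's buffer (pH 7.4) for 4 h at 37 °C. Compounds injected 4 min before α,β-Met-ATP stimulation; luminescence recorded, IC50 and pseudo-Hill slope from nonlinear regression of inhibition curves.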

SMILES	IC50 [nM]
Cc1c(C(C)C)nc2c3ncc(N4CC5(COC5)C4)cc3n(Cc3ccc(Cl)cc3)c(=O)n12 [Example 91, 6-(4-chlorobenzyl)-3-methyl-8-(2-oxa-6-azaspiro[3.3]heptan-6-yl)-2-(propan-2-yl)imidazo[1,2-c]pyrido[2,3-e]pyrimidin-5(6H)-one]	507
COCC1CN(c2cnc3c(c2)n(Cc2ccc(OC)cc2)c(=O)n2c(C)c(C(C)C)nc32)C1 [Example 92, 6-(4-methoxybenzyl)-8-[3-(methoxymethyl)azetidin-1-y1]-3-methyl-2-(propan-2-yl)imidazo[1,2-c]pyrido[2,3-e]pyrimidin-5(6H)-one]	802
COc1ccc(Cn2c(=O)n3c(C)c(C(C)C)nc3c3ncc(N4CC5(COC5)C4)cc32)cc1 [Example 93, 6-(4-methoxybenzyl)-3-methyl-8-(2-oxa-6-azaspiro[3.3]heptan-6-yl)-2-(propan-2-yl)imidazo[1,2-c]pyrido[2,3-e]pyrimidin-5(6H)-one]	1010
Cc1c(C(C)C)nc2c3ncc(C(=O)N4CCC(O)CC4)cc3n(Cc3ccc(Cl)cc3)c(=O)n12 [Example 94, 6-(4-chlorobenzyl)-8-[(4-hydroxypiperidin-1-yl)carbonyl]-3-methyl-2-(propan-2-yl)imidazo[1,2-c]pyrido[2,3-e]pyrimidin-5(6H)-one]	8260
Cc1c(C(C)C)nc2c3ncc(C(=O)NCCO)cc3n(Cc3ccc(Cl)cc3)c(=O)n12 [Example 95, 6-(4-chlorobenzyl)-n-(2-hydroxyethyl)-3-methyl-5-oxo-2-(propan-2-y1)-5,6-dihydroimidazo[1,2-c]pyrido[2,3-e]pyrimidine-8-carboxamide]	2980
COc1ccc(Cn2c(=O)n3c(C(C)C)nnc3c3ncc(N4CCOCC4)cc32)cc1 [Example 97, 6-(4-methoxybenzyl)-8-(morpholin-4-yl)-3-(propan-2-yl)pyrido[2,3-e][1,2,4]triazolo[4,3-c]pyrimidin-5(6H)-one]	394
COc1ccc(Cn2c(=O)n3c(COC4CCOCC4)nnc3c3ncc(N4CCOCC4)cc32)cc1 [Example 98, 6-(4-methoxybenzyl)-8-(morpholin-4-yl)-3-[(tetrahydro-2H-pyran-4-yloxy)methyl]pyrido[2,3-e][1,2,4]triazolo[4,3-c]pyrimidin-5(6H)-one]	897
CC(C)c1nnc2c3ncc(N4CCOCC4)cc3n(Cc3ccc(Cl)cc3)c(=O)n12 [Example 99, 6-(4-chlorobenzyl)-8-(morpholin-4-yl)-3-(propan-2-yl)pyrido[2,3-e][1,2,4]triazolo[4,3-c]pyrimidin-5(6H)-one]	121
O=c1n(Cc2ccc(Cl)cc2)c2cc(N3CCOCC3)cnc2c2nnc(Cc3cccnc3)n12 [Example 100, 6-(4-chlorobenzyl)-8-(morpholin-4-y1)-3-(pyridin-3-ylmethyl)pyrido[2,3-e][1,2,4]triazolo[4,3-c]pyrimidin-5(6H)-one]	153
COc1cc(Cn2c(=O)n3c(C)nnc3c3ncc(N4CCOCC4)cc32)cc(OC)c1 [Example 101, 6-(3,5-dimethoxybenzyl)-3-methyl-8-(morpholin-4-yl)pyrido[2,3-e][1,2,4]triazolo[4,3-c]pyrimidin-5(6H)-one]	2440
CC(C)NC(=O)Cc1nnc2c3ncc(N4CCOCC4)cc3n(Cc3ccc(Cl)cc3)c(=O)n12 [Example 103, 2-[6-(4-chlorobenzyl)-8-(morpholin-4-y1)-5-oxo-5,6-dihydropyrido[2,3-e][1,2,4]triazolo[4,3-c]pyrimidin-3-yl]-n-(propan-2-yl)acetamide]	811
COc1ccc(Cn2c(=O)n3c(CC(C)C)nnc3c3ncc(N4CCOCC4)cc32)cc1 [Example 104, 6-(4-methoxybenzyl)-3-(2-methylpropyl)-8-(morpholin-4-yl)pyrido[2,3-e][1,2,4]triazolo[4,3-c]pyrimidin-5(6H)-one]	734
O=c1n(Cc2ccc(Cl)cc2)c2cc(N3CCOCC3)cnc2c2nnc(Cc3cccnc3O)n12 [Example 105, 6-(4-chlorobenzyl)-3-[(2-hydroxypyridin-3-yl)methyl]-8-(morpholin-4-yl)pyrido[2,3-e][1,2,4]triazolo[4,3-c]pyrimidin-5(6H)-one]	655
Cc1ncccc1Cc1nnc2c3ncc(N4CCOCC4)cc3n(Cc3ccc(Cl)cc3)c(=O)n12 [Example 106, 6-(4-chlorobenzyl)-3-[(2-methylpyridin-3-yl)methyl]-8-(morpholin-4-yl)pyrido[2,3-e][1,2,4]triazolo[4,3-c]pyrimidin-5(6H)-one]	40.6
CCn1nccc1-c1nnc2c3ncc(N4CCOCC4)cc3n(Cc3ccc(Cl)cc3)c(=O)n12 [Example 107, 6-(4-chlorobenzyl)-3-(1-ethyl-1h-pyrazol-5-yl)-8-(morpholin-4-yl)pyrido[2,3-e][1,2,4]triazolo[4,3-c]pyrimidin-5(6H)-one]	1320
CC(C)Cc1nnc2c3ncc(N4CCOCC4)cc3n(Cc3ccc(Cl)cc3)c(=O)n12 [Example 108, 6-(4-chlorobenzyl)-3-(2-methylpropyl)-8-(morpholin-4-yl)pyrido[2,3-e][1,2,4]triazolo[4,3-c]pyrimidin-5(6H)-one]	175
CCn1ccc(-c2nnc3c4ncc(N5CCOCC5)cc4n(Cc4ccc(Cl)cc4)c(=O)n23)n1 [Example 109, 6-(4-chlorobenzyl)-3-(1-ethyl-1h-pyrazol-3-yl)-8-(morpholin-4-yl)pyrido[2,3-e][1,2,4]triazolo[4,3-c]pyrimidin-5(6H)-one]	203
Cc1noc(C)c1-c1nnc2c3ncc(N4CCOCC4)cc3n(Cc3ccc(Cl)cc3)c(=O)n12 [Example 110, 6-(4-chlorobenzyl)-3-(3,5-dimethyl-1,2-oxazol-4-yl)-8-(morpholin-4-yl)pyrido[2,3-e][1,2,4]triazolo[4,3-c]pyrimidin-5(6H)-one]	257

Same assay, conditions: Table 8; human P2X3 receptor antagonist activity, CHO-K1 cells, α,β-Met-ATP; read-out: h-P2X3 IC50

SMILES	IC50 [nM]
CC(C)(C)c1nnc2c3ncc(N4CCOCC4)cc3c(Cc3ccc(Cl)cc3)nn12 [Example 111, 3-tert-butyl-6-(4-chlorobenzyl)-8-(morpholin-4-yl)pyrido[2,3-d][1,2,4]triazolo[4,3-b]pyridazine]	102
CC(C)(C)c1nnc2c3ncc(Br)cc3c(Cc3ccc(Cl)cc3)nn12 [Example 112, 8-bromo-3-tert-butyl-6-(4-chlorobenzyl)pyrido[2,3-d][1,2,4]triazolo[4,3-b]pyridazine]	1440
Cc1ccc(Cc2nn3c(C(C)C)nnc3c3ncc(N4CCOCC4)cc23)cc1 [Example 115, 6-(4-methylbenzyl)-8-(morpholin-4-yl)-3-(propan-2-yl)pyrido[2,3-d][1,2,4]triazolo[4,3-b]pyridazine]	437
COc1cc(Cc2nn3c(CC(C)C)nnc3c3ncc(N4CCOCC4)cc23)cc(OC)c1 [Example 116, 6-(3,5-dimethoxybenzyl)-3-(2-methylpropyl)-8-(morpholin-4-yl)pyrido[2,3-d][1,2,4]triazolo[4,3-b]pyridazine]	469
Cc1ccc(Cc2nn3c(CC4CCOCC4)nnc3c3ncc(N4CCOCC4)cc23)cc1 [Example 117, 6-(4-methylbenzyl)-8-(morpholin-4-yl)-3-(tetrahydro-2H-pyran-4-ylmethyl)pyrido[2,3-d][1,2,4]triazolo[4,3-b]pyridazine]	197
COCCNc1cnc2c(c1)c(Cc1cc(OC)cc(OC)c1)nn1c(CC(C)C)nnc21 [Example 118, 6-(3,5-dimethoxybenzyl)-n-(2-methoxyethyl)-3-(2-methylpropyl)pyrido[2,3-d][1,2,4]triazolo[4,3-b]pyridazin-8-amine]	1050
COc1cc(Cc2nn3c(COC(C)C)nnc3c3ncc(N4CCOCC4)cc23)cc(OC)c1 [Example 119, 6-(3,5-dimethoxybenzyl)-8-(morpholin-4-yl)-3-[(propan-2-yloxy)methyl]pyrido[2,3-d][1,2,4]triazolo[4,3-b]pyridazine]	1210
C=C(C)c1nnc2c3ncc(N4CCOCC4)cc3c(Cc3cc(OC)cc(OC)c3)nn12 [Example 120, 6-(3,5-dimethoxybenzyl)-8-(morpholin-4-yl)-3-(prop-1-en-2-yl)pyrido[2,3-d][1,2,4]triazolo[4,3-b]pyridazine]	544
COCC1CN(c2cnc3c(c2)c(Cc2cc(OC)cc(OC)c2)nn2c(CC(C)C)nnc32)C1 [Example 121, 6-(3,5-dimethoxybenzyl)-8-[3-(methoxymethyl)azetidin-1-yl]-3-(2-methylpropyl)pyrido[2,3-d][1,2,4]triazolo[4,3-b]pyridazine]	1150
COc1ccc(Cc2nn3c(C(C)C)nnc3c3ncc(N4CCOCC4)cc23)cc1 [Example 122, 6-(4-methoxybenzyl)-8-(morpholin-4-yl)-3-(propan-2-yl)pyrido[2,3-d][1,2,4]triazolo[4,3-b]pyridazine]	1810

Same assay, conditions: running text b1263; read-out: inhibition (human P2X3 receptor)

SMILES	IC50 [nM]
COc1ccc(Cn2c(=O)n3c(C(C)(C)C)nnc3c3ncc(N4CCOCC4)cc32)cc1 [Example 96, 3-tert-butyl-6-(4-methoxybenzyl)-8-(morpholin-4-yl)pyrido[2,3-e][1,2,4]triazolo[4,3-c]pyrimidin-5(6H)-one]	20.7
CC1(c2nnc3c4ncc(N5CCOCC5)cc4n(Cc4ccc(Cl)cc4)c(=O)n23)CC1 [Example 102, 6-(4-chlorobenzyl)-3-(1-methylcyclopropyl)-8-(morpholin-4-yl)pyrido[2,3-e][1,2,4]triazolo[4,3-c]pyrimidin-5(6H)-one]	25.5

Source: patent US11999732B2, “P2X3 receptor antagonists” (RECORDATI INDUSTRIA CHIMICA E FARMACEUTICA SPA, priority 2018, dated 2024)
